Here are results for two compounds from US20080187492A1, “Drosophila Models For Diseases Affecting Learning and Memory” (priority 2004, published 2008).

The subject of assay [1] is flies heterozygous for the Drosophila presenilin gene. Description: Short term memory in presenilin mutant Drosophila model of Alzheimer's disease. To be noted: 30 days of age; data not shown. The format is in vivo. An excerpt: We have also discovered that there is a deficit in long term memory in these flies as young adults, and there is also an age dependent deficit in these flies in short term memory at 30 days of age (data not shown). This age dependent deficit in short term memory is rescued by treatment with LY341495. Additionally, this age dependent deficit is rescued by lowering IP3R expression by making these presenilin mutant lines heterozygous for an IP3R deletion (data not shown).

For assay [2], the system named is FS (dFMR1-3+frame shifted rescue fragment) flies. Nature of the assay: Conditioned courtship: immediate recall (0 minute memory), FS flies. In kind it is in vivo, Drosophila melanogaster. As to conditions: adulthood alone or both. As to the method: To assess immediate recall (0 minute memory), after the one hour training session with a previously mated female, the male was placed with a virgin target female for a ten-minute interval. This CI was then compared to the courtship level of naive males that had been placed in the training chamber for one hour with no female, before introducing them to a virgin target female for a ten-minute interval. In FIG. 1B the w1118 and Rescue lines show depression of courtship activity after training compared to naive trained males (p<0.005). However, dFMR1-3 and FS mutant lines court just as vigorously after training with a previously mated female as naive trained males, therefore these flies display no experience dependent behavioral plasticity at the time point of immediate recall. This is in spite of the fact that they court to similar levels as w1118 and Rescue lines during the training period. This implicates a deficit in synaptic plasticity for the two mutant lines at immediate recall (0 minute memory). This robust deficit in behavioral plasticity is a critical extension of the previous models of Fragile X syndrome in model organisms, since this has been completely missing in Drosophila models and is subtle in murine models, and particularly since this may be one of the most devastating aspects of the human disease.
Immediate recall. […]

Assay [3] has as its system Rescue (dFMR1-3+wild type rescue fragment) flies. Nature of the assay: Naive courtship behavior (courtship index toward virgin female), Rescue flies. To be noted: 20-day-old. The format is in vivo, Drosophila melanogaster.

On to `N[C@](CC1c2ccccc2Oc2ccccc21)(C(=O)O)[C@H]1C[C@@H]1C(=O)O` [LY341495, (2S)-2-amino-2-[(1S,2S)-2-carboxycycloprop-1-yl]-3-(xanth-9-yl) propionic acid], for which, in assay [1], the “age dependent deficit in short term memory” value was “rescued”.

Consider `Cc1cccc(C#Cc2ccccc2)n1` [MPEP, 2-methyl-6-(phenylethynyl)pyridine], for which the immediate recall in assay [2] (20-day-old, MPEP in development alone) is on record as “sufficient to restore synaptic plasticity in FS flies”. Further, the “immediate recall (courtship immediately after training vs naive)” value in assay [2] (5 day old, MPEP 200 μg/ml in development alone, p<0.0001) is listed as “sufficient to rescue synaptic plasticity in FS flies”. Besides, the naive courtship activity result in assay [3] (MPEP (86.6 μM) in adulthood only (CT-M)) was “depressed relative to CT-CT Rescue flies”; in assay [3] (MPEP (86.6 μM) in development then M or CT food as adults), “courted as vigorously as CT-CT Rescues flies”.
